In patent US10092584B2 (Achillion Pharmaceuticals, Inc., priority 2015, dated 2018):
pIC50: −log10 of the molar value. Structures can show the parent of a compound that is named as a salt.

Target: T1, Human Factor D (Homo sapiens, UniProt P00746)
T1 construct: purified from human serum; purchased Complement Technology, Inc; host or cells: human serum
Test: Human Factor D assay (Example 8)
Format: biochemical
Conditions: Table 3; Human Factor D 80 nM, substrate Z-L-Lys-SBzl; read-out: IC50 (Stars)
Method in brief: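 First, compound at various concentrations is mixed with 80 nM (final) human serum Factor D in 50 mM Tris, 1M NaCl, pH 7.5 for 5 min at room temperature.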

T1 sequence (P00746 26-253): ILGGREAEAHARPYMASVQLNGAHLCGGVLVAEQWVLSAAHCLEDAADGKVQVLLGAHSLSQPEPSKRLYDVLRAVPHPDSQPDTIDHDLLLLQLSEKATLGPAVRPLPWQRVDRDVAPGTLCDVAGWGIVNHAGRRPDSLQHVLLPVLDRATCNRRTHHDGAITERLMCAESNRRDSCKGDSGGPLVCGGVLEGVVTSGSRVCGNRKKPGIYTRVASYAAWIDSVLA

Row | Compound | pIC50
1 | Cc1sc(Cl)cc1NC(=O)[C@@H]1C[C@@H](F)CN1C(=O)Cn1nc(C(N)=O)c2ccncc21 [Compound 351] | 5.00 to 6.00
2 | NC(=O)c1nn(CC(=O)N2C[C@H](F)C[C@H]2C(=O)Nc2nc3cccc(Cl)c3[nH]2)c2ccccc12 [Compound 360, 1-(2-((2S,4R)-2-((7-chloro-1H-benzo[d]imidazol-2-yl)carbamoyl)-4-fluoropyrrolidin-1-yl)-2-oxoethyl)-1H-indazole-3-carboxamide] | > 6.00
3 | CC(=O)c1nn(CC(=O)N2C[C@H](F)C[C@H]2C(=O)Nc2cccc(-c3ccccc3Cl)c2F)c2cc(C(=O)O)sc12 [Compound 363] | > 6.00
4 | CC(=O)c1nc(CC(=O)N2C[C@H](F)C[C@H]2C(=O)Nc2cccc(-c3ccccc3Cl)c2F)n2ccccc12 [Compound 372, (2S,4R)-1-(2-(1-Acetylimidazo[1,5-a]pyridin-3-yl)acetyl)-N-(2′-chloro-2-fluoro-[1,1′-biphenyl]-3-yl)-4-fluoropyrrolidine-2-carboxamide] | > 6.00
5 | NC(=O)c1nc(CC(=O)N2C[C@H](F)C[C@H]2C(=O)Nc2cccc(-c3ccccc3Cl)c2F)n2ccccc12 [Compound 373, 3-(2-((2S,4R)-2-((2′-Chloro-2-fluoro-[1,1′-biphenyl]-3-yl)carbamoyl)-4-fluoropyrrolidin-1-yl)-2-oxoethyl)imidazo[1,5-a]pyridine-1-carboxamide] | > 6.00
6 | NC(=O)c1nn(CC(=O)N2CC[C@@H](O)[C@H]2C(=O)Nc2cccc(-c3ccccc3Cl)c2F)c2ccccc12 [Compound 374] | > 6.00
7 | NC(=O)c1cn(CC(=O)N2CCS[C@H]2C(=O)Nc2cccc(-c3ccccc3Cl)c2F)c2ccccc12 [Compound 375, (S)-3-(2-(3-carbamoyl-1H-indol-1-yl)acetyl)-N-(2′-chloro-2-fluoro-[1,1′-biphenyl]-3-yl)thiazolidine-2-carboxamide] | > 6.00
8 | CC(=O)c1cn(CC(=O)N2C[C@H](F)C[C@H]2C(=O)NCc2cccc(Cl)c2F)c2cc(C(=N)N)ccc12 [Compound 382, (2S,4R)-1-(2-(3-Acetyl-6-carbamimidoyl-1H-indol-1-yl)acetyl)-N-(3-chloro-2-fluorobenzyl)-4-fluoropyrrolidine-2-carboxamide TFA] | > 6.00
9 | Cc1nc2c(s1)c(C(N)=O)nn2CC(=O)N1C[C@H](F)C[C@H]1C(=O)Nc1cccc(-c2ccccc2Cl)c1F [Compound 383, 1-(2-((2S,4R)-2-(2′-Chloro-2-fluorobiphenyl-3-ylcarbamoyl)-4-fluoropyrrolidin-1-yl)-2-oxoethyl)-5-methyl-1H-pyrazolo[3,4-d]thiazole-3-carboxamide] | > 6.00
10 | CC(=O)c1nn(CC(=O)N2C[C@H](F)C[C@H]2C(=O)Nc2cccc(Br)n2)c2ccccc12 [Compound 388, (2S,4R)-1-(2-(3-acetyl-1H-indazol-1-yl)acetyl)-N-(6-bromopyridin-2-yl)-4-fluoropyrrolidine-2-carboxamide] | > 6.00
11 | COC(=O)/C=C/c1cccc(NC(=O)[C@@H]2C[C@@H](F)CN2C(=O)Cn2nc(C(N)=O)c3ccccc32)c1F [Compound 389, (E)-methyl 3-(3-((2S,4R)-1-(2-(3-carbamoyl-1H-indazol-1-yl)acetyl)-4-fluoropyrrolidine-2-carboxamido)-2-fluorophenyl) acrylate] | 5.00 to 6.00
12 | CC(=O)c1nn(CC(=O)N2C[C@H](F)C[C@H]2C(=O)Nc2cccc(Br)n2)c2ccc(O)cc12 [Compound 395, (2S,4R)-1-(2-(3-acetyl-5-hydroxy-1H-indazol-1-yl)acetyl)-N-(6-bromopyridin-2-yl)-4-fluoropyrrolidine-2-carboxamide] | > 6.00
13 | CC(=O)c1nn(CC(=O)N2[C@@H]3C[C@@H]3C[C@H]2C(=O)NC/C(F)=C(/C)c2cccc(Cl)c2)c2ccccc12 [Compound 396] | > 6.00
14 | CC(=O)c1nn(CC(=O)N2C[C@H](F)C[C@H]2C(=O)NCC23CC4CC(CC(C4)C2)C3)c2ccccc12 [Compound 397, (2S,4R)-1-(2-(3-acetyl-1H-indazol-1-yl)acetyl)-N-(((3S,5S,7S)-adamantan-1-yl)methyl)-4-fluoropyrrolidine-2-carboxamide] | > 6.00
15 | CC(=O)c1nn(CC(=O)N2C[C@H](F)C[C@H]2C(=O)Nc2cccc(Br)n2)c2cnc(Cl)cc12 [Compound 399, (2S,4R)-1-(2-(3-Acetyl-5-chloro-1H-pyrazolo[3,4-c]pyridin-1-yl)acetyl)-N-(6-bromopyridin-2-yl)-4-fluoropyrrolidine-2-carboxamide] | > 6.00
16 | CC(=O)c1nn(CC(=O)N2C[C@H](F)C[C@H]2C(=O)Nc2cccc(-c3ccc4c(c3)CCN4)c2F)c2ccccc12 [Compound 435, (2S,4R)-1-(2-(3-Acetyl-1H-indazol-1-yl)acetyl)-4-fluoro-N-(2-fluoro-3-(indolin-5-yl)phenyl)pyrrolidine-2-carboxamide] | > 6.00
17 | CC(=O)c1nn(CC(=O)N2C[C@H](F)C[C@H]2C(=O)Nc2cccc(-c3ccc4c(c3)NCCN4)c2F)c2ccccc12 [Compound 436] | > 6.00
18 | CC(=O)c1nn(CC(=O)N2C[C@H](F)C[C@H]2C(=O)Nc2cccc(-c3ccc4c(c3)NCC4)c2F)c2ccccc12 [Compound 437, (2S,4R)-1-(2-(3-acetyl-1H-indazol-1-yl)acetyl)-4-fluoro-N-(2-fluoro-3-(indolin-6-yl)phenyl)pyrroli-dine-2-carboxamide] | > 6.00
19 | CC(=O)c1nn(CC(=O)N2C[C@H](F)C[C@H]2C(=O)Nc2cccc(-c3ccc4c(c3)CNC4)c2F)c2ccccc12 [Compound 439, (2S,4R)-1-(2-(3-Acetyl-1H-indazol-1-yl)acetyl)-4-fluoro-N-(2-fluoro-3-(isoindolin-5-yl)phenyl)pyrrolidine-2-carboxamide] | > 6.00
20 | NC(=O)c1nn(CC(=O)N2C[C@H](F)C[C@H]2C(=O)Nc2cccc(-c3ccc4c(c3)NCCO4)c2F)c2ccccc12 [Compound 442, 1-(2-((2S,4R)-2-((3-(3,4-Dihydro-2H-benzo[b][1,4]oxazin-6-yl)-2-fluorophenyl)carbamoyl)-4-fluoropyrrolidin-1-yl)-2-oxoethyl)-1H-indazole-3-carboxamide] | > 6.00

Other lines, results leading:

Row | pIC50 | Compound
21 | > 6.00 | CC(=O)c1cn(CC(=O)N2C[C@H](F)C[C@H]2C(=O)Nc2cccc(-c3ccccc3Cl)c2F)c2cc(F)ccc12 [Compound 325, (2S,4R)-1-(2-(3-acetyl-6-fluoro-1H-indol-1-yl)acetyl)-N-(2′-chloro-2-fluoro-[1,1′-biphenyl]-3-yl)-4-fluoropyrrolidine-2-carboxamide]
22 | > 6.00 | NC(=O)c1nn(CC(=O)N2C[C@H](F)C[C@H]2C(=O)Nc2cccc(-c3ccccc3Cl)c2F)c2cc(C(=O)O)sc12 [Compound 326, 3-carbamoyl-1-(2-((2S,4R)-2-((2′-chloro-2-fluoro-[1,1′-biphenyl]-3-yl)carbamoyl)-4-fluoropyrrolidin-1-yl)-2-oxoethyl)-1H-thieno[3,2-c]pyrazole-5-carboxylic acid]
23 | > 6.00 | CC(=O)c1cn(CC(=O)N2C[C@H](F)C[C@H]2C(=O)Nc2cccc(-c3ccccc3Cl)c2F)c2cc(Cl)ccc12 [Compound 328, (2S,4R)-1-(2-(3-acetyl-6-chloro-1H-indol-1-yl)acetyl)-N-(2′-chloro-2-fluoro-[1,1′-biphenyl]-3-yl)-4-fluoropyrrolidine-2-carboxamide]
24 | > 6.00 | NC(=O)c1nn(CC(=O)N2C[C@H](O)C[C@H]2C(=O)Nc2cccc(-c3ccccc3Cl)c2F)c2ccccc12 [Compound 336, 1-(2-((2S,4R)-2-((2′-chloro-2-fluoro-[1,1′-biphenyl]-3-yl)carbamoyl)-4-hydroxypyrrolidin-1-yl)-2-oxoethyl)-1H-indazole-3-carboxamide]
25 | > 6.00 | NC(=O)c1nn(CC(=O)N2CCC[C@H]2C(=O)Nc2cccc(-c3ccccc3Cl)c2F)c2ccccc12 [Compound 337, (S)-1-(2-(2-((2′-chloro-2-fluoro-[1,1′-biphenyl]-3-yl)carbamoyl)pyrrolidin-1-yl)-2-oxoethyl)-1H-indazole-3-carboxamide]
26 | > 6.00 | COC(=O)c1cccc(NC(=O)[C@@H]2C[C@@H](F)CN2C(=O)Cn2nc(C(N)=O)c3ccccc32)c1F [Compound 345, methyl 3-((2S,4R)-1-(2-(3-carbamoyl-1H-indazol-1-yl)acetyl)-4-fluoropyrrolidine-2-carboxamido)-2-fluorobenzoate]
27 | > 6.00 | NC(=O)c1nn(CC(=O)N2C[C@@H](F)C[C@H]2C(=O)Nc2cccc(-c3ccccc3Cl)c2F)c2ccccc12 [Compound 352, 1-(2-((2S,4S)-2-((2′-chloro-2-fluoro-[1,1′-biphenyl]-3-yl)carbamoyl)-4-fluoropyrrolidin-1-yl)-2-oxoethyl)-1H-indazole-3-carboxamide]
28 | > 6.00 | NC(=O)c1nn(CC(=O)N2CC(F)(F)C[C@H]2C(=O)Nc2cccc(-c3ccccc3Cl)c2F)c2ccccc12 [Compound 353, (S)-1-(2-(2-((2′-chloro-2-fluoro-[1,1′-biphenyl]-3-yl)carbamoyl)-4,4-difluoropyrrolidin-1-yl)-2-oxoethyl)-1H-indazole-3-carboxamide]
29 | > 6.00 | NC(=O)c1nn(CC(=O)N2C[C@@H](O)C[C@H]2C(=O)Nc2cccc(-c3ccccc3Cl)c2F)c2ccccc12 [Compound 354, 1-(2-((2S,4S)-2-((2′-chloro-2-fluoro-[1,1′-biphenyl]-3-yl)carbamoyl)-4-hydroxypyrrolidin-1-yl)-2-oxoethyl)-1H-indazole-3-carboxamide]
30 | > 6.00 | NC(=O)c1nn(CC(=O)N2CC(=O)C[C@H]2C(=O)Nc2cccc(-c3ccccc3Cl)c2F)c2ccccc12 [Compound 355, (S)-1-(2-(2-((2′-chloro-2-fluoro-[1,1′-biphenyl]-3-yl)carbamoyl)-4-oxopyrrolidin-1-yl)-2-oxoethyl)-1H-indazole-3-carboxamide]
31 | > 6.00 | NC(=O)c1nn(CC(=O)N2CC[C@@H](N)[C@H]2C(=O)Nc2cccc(-c3ccccc3Cl)c2F)c2ccccc12 [Compound 356, 1-(2-((2S,3R)-3-amino-2-((2′-chloro-2-fluoro-[1,1′-biphenyl]-3-yl)carbamoyl)pyrrolidin-1-yl)-2-oxoethyl)-1H-indazole-3-carboxamide]
